The results in this text go back to patent US8722849B2, “Polypeptides” (Novo Nordisk A/S, priority 2011, dated 2014).

pEC50: −log10 of the molar value. Values after ≈ are worked out from the molar mass of the structure shown. Read-outs that look alike come from different tables or passages of the source. Starred links: 1 amine or outer side, 2 acyl side, 3 side chain; linkers in the order of their positions; H or OH if unused. Positions of bridges follow the written chain, without caps; N, C: chain ends. Residues, ends and D or L forms follow the SMILES beside them. *: point of attachment. C20 diacid = O=C(O)CCCCCCCCCCCCCCCCCCC(=O)*; γGlu = O=C(O)[C@H](CCC(=O)[*:2])N[*:1]

Data set [1] addresses T1, human amylin receptor (amylin 3(a) receptor: human calcitonin receptor + RAMP-3) (Homo sapiens, UniProt O60896+P30988).
T1 construct: expressed in transfected cells; host or cells: BHK570
T1 sequence (P30988 25-474): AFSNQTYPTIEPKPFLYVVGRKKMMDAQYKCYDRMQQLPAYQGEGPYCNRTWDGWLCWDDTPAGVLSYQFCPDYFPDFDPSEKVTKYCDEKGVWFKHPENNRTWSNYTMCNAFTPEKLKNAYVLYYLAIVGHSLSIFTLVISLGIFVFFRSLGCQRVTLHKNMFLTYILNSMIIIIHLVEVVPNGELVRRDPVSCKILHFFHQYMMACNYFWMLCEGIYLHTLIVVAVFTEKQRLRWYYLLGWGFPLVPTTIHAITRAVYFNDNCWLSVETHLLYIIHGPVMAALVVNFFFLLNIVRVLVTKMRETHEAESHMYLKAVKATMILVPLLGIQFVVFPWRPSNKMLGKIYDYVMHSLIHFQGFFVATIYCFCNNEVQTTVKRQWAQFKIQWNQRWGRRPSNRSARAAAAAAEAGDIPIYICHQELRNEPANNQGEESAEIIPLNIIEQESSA
T1 sequence (O60896 24-148 partner): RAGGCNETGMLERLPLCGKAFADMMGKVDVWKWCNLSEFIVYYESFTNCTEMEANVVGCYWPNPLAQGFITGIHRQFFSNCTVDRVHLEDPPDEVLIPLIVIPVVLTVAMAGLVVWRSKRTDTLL
Nature of the data set: Assay (II)a functional CRE-luciferase assay, human amylin receptor. Format: cell-based. The following applies: Table 2; BHK amylin 3(a)-receptor/CRE-luc cells.

Data set [2] has as its target T2, human calcitonin receptor (Homo sapiens, UniProt P30988).
T2 construct: expressed in transfected cells; host or cells: BHK570
T2 sequence (P30988 25-474): T1 sequence (P30988 25-474)
The experiment in a line: Assay (II)a functional CRE-luciferase assay, human calcitonin receptor. It is filed as cell-based. The following applies: Table 7; human calcitonin (CTa) receptor.

Data set [3] can be described thus: Assay (III) ThT fibrillation assay for physical stability. It is filed as physicochemical. Particulars: ThT fibrillation assay. The gist of the method: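 Freshly prepared formulations, pH-adjusted, with 1 μM ThT; four or eight replicates incubated at 37 °C under 960 rpm orbital shaking. Fluorescence (ex 444/em 485 nm) read every 20 min; […]. Peptide concentration measured by RP-HPLC before and after the run.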

Data set [4] can be described thus: Assay (IV) determination of solubility. Format: physicochemical. The procedure, abridged: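 Solubility is measured across pH 3.0–8.0 by mixing a ~500 nmol/ml aqueous polypeptide stock 1:1 with 100 mM glycylglycine or bistrispropane buffers. Samples stand 18 hours at room temperature, then are centrifuged and the soluble concentration is determined by HPLC.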
Where [5] appears, read: bistrispropane buffer, pH 6, pH 6.0, read-out: Solubility pH 6.0.
The mark [6] stands for this setting: bistrispropane buffer, pH 6.5, pH 6.5, read-out: Solubility pH 6.5.
Where [7] appears, read: bistrispropane buffer, pH 7, pH 7.0, read-out: Solubility pH 7.0.
Setting [8] is: bistrispropane buffer, pH 7.5, pH 7.5, read-out: Solubility pH 7.5.
Where [9] appears, read: bistrispropane buffer, pH 8, pH 8.0, read-out: Solubility pH 8.0.
[10] abbreviates: glycylglycine buffer, pH 3, pH 3.0, read-out: Solubility pH 3.0.
Where [11] appears, read: glycylglycine buffer, pH 4, pH 4.0, 18 hours at room temperature, Table 2, read-out: Solubility pH 4.0.
Where [12] appears, read: glycylglycine buffer, pH 4, pH 4.0, read-out: Solubility pH 4.0.
The mark [13] stands for this setting: glycylglycine buffer, pH 5, pH 5.0, read-out: Solubility pH 5.0.

By pEC50 is commonly meant −log10 of the EC50, conventionally taken in molar units. As usually defined, the solubility is how much of the substance goes into solution per volume.

Regarding `CC[C@H](C)[C@H](NC(=O)[C@@H]1CCCN1C(=O)CNC(=O)[C@H](Cc1ccccc1)NC(=O)[C@H](CC(N)=O)NC(=O)[C@H](CC(N)=O)NC(=O)[C@H](CO)NC(=O)[C@H](CO)NC(=O)[C@H](CCCNC(=N)N)NC(=O)[C@H](Cc1c[nH]cn1)NC(=O)[C@H](CC(C)C)NC(=O)[C@H](Cc1ccccc1)NC(=O)[C@H](CCC(=O)O)NC(=O)[C@H](C)NC(=O)[C@H](CC(C)C)NC(=O)[C@H](CCCNC(=N)N)NC(=O)[C@H](CCC(N)=O)NC(=O)[C@@H](NC(=O)[C@H](C)NC(=O)[C@@H]1CSSC[C@H](NC(=O)[C@H](CCCCN)NC(=O)CC[C@H](NC(=O)CCCCCCCCCCCCCCCCCCC(=O)O)C(=O)O)C(=O)N[C@@H](CC(N)=O)C(=O)N[C@@H]([C@@H](C)O)C(=O)N[C@@H](C)C(=O)N[C@@H]([C@@H](C)O)C(=O)N1)[C@@H](C)O)C(=O)N[C@@H](CC(C)C)C(=O)N1CCC[C@H]1C(=O)N1CCC[C@H]1C(=O)N[C@H](C(=O)N[C@@H](CC(N)=O)C(=O)N[C@H](C(=O)NCC(=O)N[C@@H](CO)C(=O)N[C@@H](Cc1c[nH]cn1)C(=O)N[C@H](C(=O)N[C@@H](Cc1ccc(O)cc1)C(N)=O)[C@@H](C)O)C(C)C)[C@@H](C)O` [Example 78, N-alpha-[(S)-4-Carboxy-4-(19-carboxynonadecanoylamino)butyryl]-[Glu14,His17,Arg18,His35]-pramlintide] ({C20 diacid-γGlu}-KCNTATCATQRLAEFLHRSSNNFGPILPPTNVGSHTY-NH2; disulfide 2-7 (inferred); C-terminus assumed), the pEC50 in data set [1] was 10.16; in data set [2], 10.02. Besides, the “ThT pH 4.0 lag time” value in data set [3] was greater than 45 h. The “ThT pH 4.0 lag time (h)” value in data set [3] is recorded as greater than 45 h. In addition, the solubility at 18 h in data set [4] (setting [5]) is greater than 200 µM; in data set [4] (setting [6]) it was greater than 200 µM; in data set [4] (bistrispropane buffer, pH 7, pH 7.0, 18 hours at room temperature, Table 3, read-out: Solubility pH 7.0), 122 µM (≈ 549 µg/mL); in data set [4] (setting [7]), 122 µM (≈ 549 µg/mL); in data set [4] (setting [8]), 92 µM (≈ 414 µg/mL); in data set [4] (setting [9]) it was 79 µM (≈ 355 µg/mL). In addition, the solubility at 18 h in data set [4] (setting [10]), in data set [4] (setting [11]), in data set [4] (setting [12]) and in data set [4] (setting [13]) was greater than 200 µM throughout.
For `CC[C@H](C)[C@H](NC(=O)[C@@H]1CCCN1C(=O)CNC(=O)[C@H](Cc1ccccc1)NC(=O)[C@H](CC(N)=O)NC(=O)[C@H](CC(N)=O)NC(=O)[C@H](CO)NC(=O)[C@H](CO)NC(=O)[C@H](CCCNC(=N)N)NC(=O)[C@H](Cc1c[nH]cn1)NC(=O)[C@H](CC(C)C)NC(=O)[C@H](Cc1ccccc1)NC(=O)[C@H](CCC(=O)O)NC(=O)[C@H](C)NC(=O)[C@H](CC(C)C)NC(=O)[C@H](CCCNC(=N)N)NC(=O)[C@H](CCC(N)=O)NC(=O)[C@@H](NC(=O)[C@H](C)NC(=O)[C@@H]1CSSC[C@H](NC(=O)[C@H](CCC(=O)O)NC(=O)CC[C@H](NC(=O)CCCCCCCCCCCCCCCCCCC(=O)O)C(=O)O)C(=O)N[C@@H](CC(N)=O)C(=O)N[C@@H]([C@@H](C)O)C(=O)N[C@@H](C)C(=O)N[C@@H]([C@@H](C)O)C(=O)N1)[C@@H](C)O)C(=O)N[C@@H](CC(C)C)C(=O)N1CCC[C@H]1C(=O)N1CCC[C@H]1C(=O)N[C@H](C(=O)N[C@@H](CC(N)=O)C(=O)N[C@H](C(=O)NCC(=O)N[C@@H](CO)C(=O)N[C@@H](CC(N)=O)C(=O)N[C@H](C(=O)N[C@@H](Cc1ccc(O)cc1)C(N)=O)[C@@H](C)O)C(C)C)[C@@H](C)O` [Example 5, N-alpha-[(S)-4-Carboxy-4-(19-carboxynonadecanoylamino)butyryl]-[Glu1,Glu14,His17,Arg18]-pramlintide] ({C20 diacid-γGlu}-ECNTATCATQRLAEFLHRSSNNFGPILPPTNVGSNTY-NH2; disulfide 2-7 (inferred); C-terminus assumed), the figures for the pEC50 in data set [1] and in data set [2] were 9.45 and 8.78, respectively. The “ThT pH 4.0 lag time (h)” value in data set [3] turned out to be 4.4 h. In addition, the solubility at 18 h in data set [4] (pH 3.0, read-out: Solubility pH 3.0) was greater than 200 µM; in data set [4] (pH 4.0, read-out: Solubility pH 4.0) it was greater than 200 µM; in data set [4] (pH 5.0, read-out: Solubility pH 5.0), 62 µM (≈ 278 µg/mL); in data set [4] (pH 6.0, read-out: Solubility pH 6.0), 164 µM (≈ 734 µg/mL); in data set [4] (pH 6.5, read-out: Solubility pH 6.5), 181 µM (≈ 810 µg/mL); in data set [4] (pH 7.0, read-out: Solubility pH 7.0) it was greater than 200 µM. Further, the solubility at 18 h is given as greater than 200 µM in data set [4] (pH 7.5, read-out: Solubility pH 7.5) and greater than 200 µM in data set [4] (pH 8.0, read-out: Solubility pH 8.0). Moreover, in data set [4] (pH 4.0, 18 hours at room temperature, Table 2), the “Solubility pH 4.0 (μM)” value is on record as greater than 200 μM. In data set [4] (pH 7.0, 18 hours at room temperature, Table 3), the “Solubility pH 7.0 (μM)” value is given as greater than 200 μM.
For the compound `CC[C@H](C)[C@H](NC(=O)[C@@H]1CCCN1C(=O)CNC(=O)[C@H](Cc1ccccc1)NC(=O)[C@H](CC(N)=O)NC(=O)[C@H](CC(N)=O)NC(=O)[C@H](CO)NC(=O)[C@H](CO)NC(=O)[C@H](Cc1c[nH]cn1)NC(=O)[C@H](Cc1c[nH]cn1)NC(=O)[C@H](CC(C)C)NC(=O)[C@H](Cc1ccccc1)NC(=O)[C@H](CCC(=O)O)NC(=O)[C@H](C)NC(=O)[C@H](CC(C)C)NC(=O)[C@H](CCCNC(=N)N)NC(=O)[C@H](CCC(N)=O)NC(=O)[C@@H](NC(=O)[C@H](C)NC(=O)[C@@H]1CSSC[C@H](NC(=O)[C@H](CO)NC(=O)CC[C@H](NC(=O)CCCCCCCCCCCCCCCCCCC(=O)O)C(=O)O)C(=O)N[C@@H](CC(N)=O)C(=O)N[C@@H]([C@@H](C)O)C(=O)N[C@@H](C)C(=O)N[C@@H]([C@@H](C)O)C(=O)N1)[C@@H](C)O)C(=O)N[C@@H](CC(C)C)C(=O)N1CCC[C@H]1C(=O)N1CCC[C@H]1C(=O)N[C@H](C(=O)N[C@@H](CC(N)=O)C(=O)N[C@H](C(=O)NCC(=O)N[C@@H](CO)C(=O)N[C@@H](Cc1c[nH]cn1)C(=O)N[C@H](C(=O)N[C@@H](Cc1ccc(O)cc1)C(N)=O)[C@@H](C)O)C(C)C)[C@@H](C)O` [Example 107, N-alpha-[(S)-4-Carboxy-4-(19-carboxynonadecanoylamino)butyryl]-[Ser1,Glu14,His17,His35]-pramlintide] ({C20 diacid-γGlu}-SCNTATCATQRLAEFLHHSSNNFGPILPPTNVGSHTY-NH2; disulfide 2-7), the values for the pEC50 in data set [1] and in data set [2] were 9.65 and 9.77, respectively. Moreover, the “ThT pH 4.0 lag time (h)” value in data set [3] came to 19 h. Further, the solubility at 18 h in data set [4] (setting [5]) was 49 µM (≈ 217 µg/mL); in data set [4] (setting [6]), 4 µM (≈ 17.8 µg/mL); in data set [4] (setting [7]), 27 µM (≈ 120 µg/mL); in data set [4] (setting [8]), 174 µM (≈ 772 µg/mL); in data set [4] (setting [9]), greater than 200 µM; in data set [4] (setting [10]), greater than 200 µM. Moreover, the solubility at 18 h in data set [4] (setting [11]), in data set [4] (setting [12]) and in data set [4] (setting [13]) was greater than 200 µM in each case.
